Consider 31 compounds from US10618903B2, “Heteroaryl substituted aminopyridine compounds” (BRISTOL-MYERS SQUIBB COMPANY, priority 2015, dated 2020).

This assay concerns the target IRAK4 (Homo sapiens (Human), UniProt Q9NWZ3). Put plainly: IRAK4 Inhibition Assay. Format: biochemical. The following applies: ATP 500 μM; IRAK4 0.6 nM. How it is done:
The assays were performed in U-bottom 384-well plates. The final assay volume was 30 μL prepared from 15 μL additions of enzyme and substrates (fluoresceinated peptide and ATP) and test compounds in assay buffer (20 mM HEPES pH 7.2, 10 mM MgCl2, 0.015% Brij 35 and 4 mM DTT). The reaction was initiated by the combination of IRAK4 with substrates and test compounds. The reaction mixture was incubated at room temperature for 60 min. and terminated by adding 45 μL of 35 mM EDTA to each sample. The reaction mixture was analyzed on the Caliper LABCHIP® 3000 (Caliper, Hopkinton, Mass.) by electrophoretic separation of the fluorescent substrate and phosphorylated product. Inhibition data were calculated by comparison to no enzyme control reactions for 100% inhibition and vehicle-only reactions for 0% inhibition. The final concentrations of reagents in the assays are ATP, 500 μM; FL-IPTSPITTTYFFFKKK peptide 1.5 μM; IRAK4, 0.6 nM; and DMSO, 1.6%.

Sequence of IRAK4 (Q9NWZ3 whole entry): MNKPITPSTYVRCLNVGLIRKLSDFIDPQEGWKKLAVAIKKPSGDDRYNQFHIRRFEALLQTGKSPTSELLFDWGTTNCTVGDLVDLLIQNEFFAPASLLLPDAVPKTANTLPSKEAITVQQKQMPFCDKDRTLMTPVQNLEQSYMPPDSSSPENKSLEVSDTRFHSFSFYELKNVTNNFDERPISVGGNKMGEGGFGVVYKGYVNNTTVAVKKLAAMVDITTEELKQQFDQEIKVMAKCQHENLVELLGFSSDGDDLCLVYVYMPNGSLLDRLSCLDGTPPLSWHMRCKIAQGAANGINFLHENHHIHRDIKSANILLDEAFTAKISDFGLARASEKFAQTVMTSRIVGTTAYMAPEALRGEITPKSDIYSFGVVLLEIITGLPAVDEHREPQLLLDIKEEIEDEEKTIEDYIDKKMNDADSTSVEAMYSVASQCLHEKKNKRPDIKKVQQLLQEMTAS

On to `COC1CC(Nc2cc(-c3cnn4cc(Cl)cnc34)ncc2C(=O)NC[C@@H](F)C(C)(C)O)CC1(F)F` (single isomer, unassigned) [Example 14], for which the IC50 is 22 nM.
In the case of `CC(C)(O)[C@H](F)CNC(=O)c1cnc(-c2cnn3cc(C#N)cnc23)cc1N[C@H]1COC[C@@H]1F` (single isomer, unassigned) [Example 116] it was 21 nM.
In the case of `CC(C)(O)[C@H](F)CNC(=O)c1cnc(-c2cnn3cc(C#N)cnc23)cc1N[C@H]1COC[C@@H]1F` (single isomer, unassigned) [Example 117] it was 39 nM.
The same measure for `CC(C)(O)[C@H](F)CNC(=O)c1cnc(-c2cnn3cc(C#N)cnc23)cc1NCC1(O)CCCOC1` (single isomer, unassigned) [Example 122]: 30 nM; for `CC(C)(O)[C@H](F)CNC(=O)c1cnc(-c2cnn3cc(C#N)cnc23)cc1NCC1(O)CCCOC1` (single isomer, unassigned) [Example 123]: 42 nM.
Regarding `CC(C)(O)[C@H](F)CNC(=O)c1cnc(-c2cnc3cccnn23)cc1NC1COCC1O` (single isomer, unassigned) [Example 134], the IC50 stood at 92 nM.
As for `CC(C)(O)[C@H](F)CNC(=O)c1cnc(-c2cnc3cccnn23)cc1NC1COCC1O` (single isomer, unassigned) [Example 135], the IC50 was found to be 44 nM.
In the case of `CC(C)Nc1cc(-c2cnn3cc(Cl)cnc23)ncc1C(=O)NCC(F)C(O)(CO)CO` (stereo not shown) [Example 8, 6-(6-chloropyrazolo[1,5-a]pyrimidin-3-yl)-N-(2-fluoro-3,4-dihydroxy-3-(hydroxymethyl)butyl)-4-(isopropylamino)nicotinamide], the IC50 stood at 24 nM.
On to `CC(C)Nc1cc(-c2cnn3cc(Cl)cnc23)ncc1C(=O)NCC(F)C1(O)COC1` (stereo not shown) [Example 9, 6-(6-chloropyrazolo[1,5-a]pyrimidin-3-yl)-N-(2-fluoro-2-(3-hydroxyoxetan-3-yl)ethyl)-4-(isopropylamino)nicotinamide], for which the IC50 amounted to 5 nM.
The same measure for `CC(C)Nc1cc(-c2cnn3cc(Cl)cnc23)ncc1C(=O)Nc1cnn(CC(=O)NC[C@@H](F)C(C)(C)O)c1` [Example 10, (R)-6-(6-chloropyrazolo[1,5-a]pyrimidin-3-yl)-N-(1-(2-((2-fluoro-3-hydroxy-3-methylbutyl)amino)-2-oxoethyl)-1H-pyrazol-4-yl)-4-(isopropylamino)nicotinamide]: 99 nM; for `CO[C@H]1CC[C@H](NC(=O)c2cnc(-c3cnn4cc(Cl)cnc34)cc2NC(C)C)CC1` [Example 11, 6-(6-chloropyrazolo[1,5-a]pyrimidin-3-yl)-4-(isopropylamino)-N-((1R,4R)-4-methoxycyclohexyl)nicotinamide]: 14 nM; for `CC(C)(F)CCNC(=O)c1cnc(-c2cnn3cc(Cl)cnc23)cc1NC1COC1` [Example 12, 6-(6-chloropyrazolo[1,5-a]pyrimidin-3-yl)-N-(3-fluoro-3-methylbutyl)-4-(oxetan-3-ylamino)nicotinamide]: 92 nM.
The same measure for `COC1CCC(F)(CCNC(=O)c2cnc(-c3cnn4cc(Cl)cnc34)cc2NC2COC2)CC1` (stereo not shown) [Example 17, 6-(6-chloropyrazolo[1,5-a]pyrimidin-3-yl)-N-(2-(1-fluoro-4-methoxycyclohexyl)ethyl)-4-(oxetan-3-ylamino)nicotinamide]: 19 nM.
The same measure for `CNC(=O)[C@H]1CC[C@H](NC(=O)c2cnc(-c3cnn4cc(Cl)cnc34)cc2NCC(C)(C)F)CC1` [Example 24, 6-(6-chloropyrazolo[1,5-a]pyrimidin-3-yl)-4-((2-fluoro-2-methylpropyl)amino)-N-((1r,4r)-4-(methylcarbamoyl)cyclohexyl)nicotinamide]: 35 nM; for `CC(C)Nc1cc(-c2cnn3cc(Cl)cnc23)ncc1C(=O)NCCc1ccc(S(N)(=O)=O)cc1` [Example 26, 6-(6-chloropyrazolo[1,5-a]pyrimidin-3-yl)-4-(isopropylamino)-N-(4-sulfamoylphenethyl)nicotinamide]: 8 nM; for `CC(C)Nc1cc(-c2cnn3cc(Cl)cnc23)ncc1C(=O)N[C@H]1CC[C@H](C(=O)NC(C)C)CC1` [Example 29, 6-(6-chloropyrazolo[1,5-a]pyrimidin-3-yl)-4-(isopropylamino)-N-((1r,4r)-4-(isopropylcarbamoyl)cyclohexyl)nicotinamide]: 24 nM.
For the compound `CC(C)(O)[C@H](F)CNC(=O)c1cnc(-c2cnn3cc(Cl)cnc23)cc1N[C@@H]1CCN(c2ncc(F)cn2)C1` [Example 36, 6-(6-chloropyrazolo[1,5-a]pyrimidin-3-yl)-N—((R)-2-fluoro-3-hydroxy-3-methylbutyl)-4-(((R)-1-(5-fluoropyrimidin-2-yl)pyrrolidin-3-yl)amino)nicotinamide], the IC50 is 5 nM.
The same measure for `CC1(CNc2cc(-c3cnn4cc(Cl)cnc34)ncc2C(=O)NC[C@@H](F)C(C)(C)O)COC1` [Example 38, (R)-6-(6-chloropyrazolo[1,5-a]pyrimidin-3-yl)-N-(2-fluoro-3-hydroxy-3-methylbutyl)-4-(((3-methyloxetan-3-yl)methyl)amino)nicotinamide]: 7 nM; for `CC(C)(O)[C@H](F)CNC(=O)c1cnc(-c2cnn3cc(Cl)cnc23)cc1NCC1(O)COC1` [Example 39, (R)-6-(6-chloropyrazolo[1,5-a]pyrimidin-3-yl)-N-(2-fluoro-3-hydroxy-3-methylbutyl)-4-(((3-hydroxyoxetan-3-yl)methyl)amino)nicotinamide]: 18 nM.
Turning to `CC(C)(O)[C@H](F)CNC(=O)c1cnc(-c2cnn3cc(Cl)cnc23)cc1N[C@@H]1COC[C@H]1O` [Example 42, 6-(6-chloropyrazolo[1,5-a]pyrimidin-3-yl)-N—((R)-2-fluoro-3-hydroxy-3-methylbutyl)-4-(((3R,4S)-4-hydroxytetrahydrofuran-3-yl)amino) nicotinamide], the IC50 was determined as 8 nM.
The same measure for `CC(C)(O)[C@H](F)CNC(=O)c1cnc(-c2cnn3cc(Cl)cnc23)cc1N[C@@H]1COC[C@H]1F` [Example 43, 6-(6-chloropyrazolo[1,5-a]pyrimidin-3-yl)-N—((R)-2-fluoro-3-hydroxy-3-methylbutyl)-4-(((3R,4S)-4-fluorotetrahydrofuran-3-yl)amino)nicotinamide]: 17 nM; for `CNC(=O)Cn1cc(NC(=O)c2cnc(-c3cnn4cc(Cl)cnc34)cc2NC(C)C)cn1` [Example 45, 6-(6-chloropyrazolo[1,5-a]pyrimidin-3-yl)-4-(isopropylamino)-N-(1-(2-(methylamino)-2-oxoethyl)-1H-pyrazol-4-yl)nicotinamide]: 34 nM.
The same measure for `CC(C)(O)[C@H](F)CNC(=O)c1cnc(-c2cnn3cc(Cl)cnc23)cc1NC1CCOC1` (stereo partly drawn) [Example 53, 6-(6-chloropyrazolo[1,5-a]pyrimidin-3-yl)-N—((R)-2-fluoro-3-hydroxy-3-methylbutyl)-4-((tetrahydrofuran-3-yl)amino)nicotinamide]: 4 nM.
For the compound `CC(C)(O)[C@H](F)CNC(=O)c1cnc(-c2cnn3cc(Cl)cnc23)cc1NC1CCOC1` (stereo partly drawn) [Example 54, 6-(6-chloropyrazolo[1,5-a]pyrimidin-3-yl)-N—((R)-2-fluoro-3-hydroxy-3-methylbutyl)-4-((tetrahydrofuran-3-yl)amino)nicotinamide], the IC50 came out at 3 nM.
In the case of `CC(C)Nc1cc(-c2cnn3cc(Cl)cnc23)ncc1C(=O)NCCC1(O)CCC(C)(O)CC1` (stereo not shown) [Example 55, 6-(6-chloropyrazolo[1,5-a]pyrimidin-3-yl)-N-(2-(1,4-dihydroxy-4-methylcyclohexyl)ethyl)-4-(isopropylamino)nicotinamide] it was 9 nM.
The same measure for `CC(C)(O)[C@H](F)CNC(=O)c1cnc(-c2cnn3cc(Cl)cnc23)cc1N[C@H]1C[C@H](C(C)(C)O)C1` [Example 59, 6-(6-chloropyrazolo[1,5-a]pyrimidin-3-yl)-N—((R)-2-fluoro-3-hydroxy-3-methylbutyl)-4-(((1r,3R)-3-(2-hydroxypropan-2-yl)cyclobutyl)amino)nicotinamide]: 6 nM; for `CC(C)Nc1cc(-c2cnn3cc(Cl)cnc23)ncc1C(=O)NCCC(=O)N1CCOCC1` [Example 62, 6-(6-chloropyrazolo[1,5-a]pyrimidin-3-yl)-4-(isopropylamino)-N-(3-morpholino-3-oxopropyl)nicotinamide]: 47 nM; for `CC(C)Nc1cc(-c2cnn3cc(Cl)cnc23)ncc1C(=O)NCC(=O)N1CCC2(CCO2)CC1` [Example 63, 6-(6-chloropyrazolo[1,5-a]pyrimidin-3-yl)-4-(isopropylamino)-N-(2-oxo-2-(1-oxa-7-azaspiro[3.5]nonan-7-yl)ethyl)nicotinamide]: 8 nM.
The same measure for `CC(C)(O)[C@H](F)CNC(=O)c1cnc(-c2cnn3cc(Cl)cnc23)cc1NCC(F)(F)F` [Example 64, (R)-6-(6-chloropyrazolo[1,5-a]pyrimidin-3-yl)-N-(2-fluoro-3-hydroxy-3-methylbutyl)-4-((2,2,2-trifluoroethyl)amino)nicotinamide]: 5 nM; for `CC(C)(C)Nc1cc(-c2cnn3cc(Cl)cnc23)ncc1C(=O)NC[C@@H](F)C(C)(C)O` [Example 72, (R)-4-(tert-butylamino)-6-(6-chloropyrazolo[1,5-a]pyrimidin-3-yl)-N-(2-fluoro-3-hydroxy-3-methylbutyl) nicotinamide]: 2 nM.
For `CC(C)Nc1cc(-c2cnn3cc(Cl)cnc23)ncc1C(=O)NC1CCN(S(=O)(=O)C(C)C)CC1` [Example 74, 6-(6-chloropyrazolo[1,5-a]pyrimidin-3-yl)-4-(isopropylamino)-N-(1-(isopropylsulfonyl)piperidin-4-yl)nicotinamide], the IC50 was 26 nM.

A word on the IC50: it is the concentration at which inhibition is half-maximal.
